The values that follow come from patent publication US20220213099A1, “PRODRUG COMPOUNDS” (BRISTOL-MYERS SQUIBB COMPANY, priority 2019, published 2022).

The structures appear in SMILES notation. In brackets after ≈: the same amount, converted by molar mass. Counter-ions that a name gives are not always drawn. Like-named read-outs stand apart in the source and are kept apart here.

Data set [1] is described as follows: Stability evaluation in aqueous buffer. To be noted: about 50 μg/mL, about 15% v/v acetonitrile; for half-life: aqueous buffer, 37° C. In kind it is physicochemical. Here is the method: The stability study of an individual prodrug was conducted with about 50 μg/mL solutions in aqueous buffers of pH 1 (0.1 M HCl), 4 (acetate buffer) and 6.5 (phosphate buffer) at 37° C. for 24 hours. About 15% v/v acetonitrile was used in these pH buffers as a co-solvent to obtain clear solutions of prodrugs. The sample analysis was carried out using a generic reversed phase liquid chromatographic (LC) method with UV detection. The area percent (AP) loss of the prodrug peak was quantified as a function of time. The appearance of parent peak was identified from the chromatographic retention time. The half-life (t1/2, h) of the prodrug was calculated by using a pseudo-first order equation from a AP loss vs time plot.

Data set [2] can be described thus: Solubility evaluation in aqueous buffer. To be noted: for solubility: aqueous buffer, 25 °C, thermodynamic from solid. The class given is physicochemical. Here is the method: The solid powder of an individual prodrug was equilibrated in aqueous buffers of pH 1, 4 and 6.5 at 25° C. for about 24 hours. After equilibration, the excess solid was separated by filtration using 0.45 μm membrane filter and the filtrate was collected in suitable glass vial. The filtrate was diluted appropriately using respective buffers/diluent and analyzed by a reversed phase LC method with UV detection.

Where [3] appears, read: pH 1, pH 1 (0.1 M HCl), read-out: Stability (t1/2, h) at 37° C. pH 1 (converted).
[4] abbreviates: pH 4, pH 4 (acetate buffer), read-out: Stability (t1/2, h) at 37° C. pH 4 (converted).
[5] abbreviates: pH 6.5, pH 6.5 (phosphate buffer), read-out: Stability (t1/2, h) at 37° C. pH 6.5 (converted).
Setting [6] is: aqueous buffer pH 4, 25° C., about 24 hours equilibration, ditrifluoroacetate.
Where [7] appears, read: aqueous buffer pH 6.5, 25° C., about 24 hours equilibration, ditrifluoroacetate.
The mark [8] stands for this setting: pH 1, simulated gastric fluid, aqueous buffer pH 1, 25° C., about 24 hours equilibration, read-out: Solubility (mg/mL) at 25° C. pH 1.
Setting [9] is: pH 4, aqueous buffer, aqueous buffer pH 4, 25° C., about 24 hours equilibration, read-out: Solubility (mg/mL) at 25° C. pH 4.
Where [10] appears, read: pH 6.5, aqueous buffer, aqueous buffer pH 6.5, 25° C., about 24 hours equilibration, read-out: Solubility (mg/mL) at 25° C. pH 6.5.

In the case of `Cc1c(-c2c(C(C)C)c3cc(C4CCN(CC(N)=O)CC4)ccc3n2C(=O)OC(C)OC(=O)C2(N)CC2)cn2ncnc2c1C` (single isomer, unassigned) [Example 6, 1-((1-Aminocyclopropane-1-carbonyl)oxy)ethyl 5-(1-(2-amino-2-oxoethyl)piperidin-4-yl)-2-(7,8-dimethyl-[1,2,4]triazolo[1,5-a]pyridin-6-yl)-3-isopropyl-1H-indole-1-carboxylate ditrifluoroacetate], the half-life is more than 500 h in data set [1] (setting [3]), 415 h in data set [1] (setting [4]) and 108 h in data set [1] (setting [5]). Moreover, the “Solubility (mg/mL) at 25° C. pH 4” value in data set [2] (setting [6]) stood at 0.52 mg/mL. For the same molecule, in data set [2] (setting [7]), the “Solubility (mg/mL) at 25° C. pH 6.5” value is on record as more than 1.22 mg/mL. The solubility in data set [2] (setting [8]) was more than 1.32 mg/mL.

With `Cc1c(-c2c(C(C)C)c3cc(C4CCN(CC(N)=O)CC4)ccc3n2C(=O)OC(C)OC(=O)C2(N)CC2)cn2ncnc2c1C` (single isomer, unassigned) [Example 7, 1-((1-Aminocyclopropane-1-carbonyl)oxy)ethyl 5-(1-(2-amino-2-oxoethyl)piperidin-4-yl)-2-(7,8-dimethyl-[1,2,4]triazolo[1,5-a]pyridin-6-yl)-3-isopropyl-1H-indole-1-carboxylate ditrifluoroacetate], the “Stability (t1/2, h) at 37° C. pH 1” value in data set [1] (pH 1 (0.1 M HCl)) is more than 500 h. Besides, in data set [1] (pH 4 (acetate buffer), ditrifluoroacetate), the “Stability (t1/2, h) at 37° C. pH 4” value is recorded as more than 500 h. Also, the “Stability (t1/2, h) at 37° C. pH 6.5” value in data set [1] (pH 6.5 (phosphate buffer), ditrifluoroacetate) stood at 193 h. The “Solubility (mg/mL) at 25° C. pH 1” value in data set [2] (aqueous buffer pH 1, 25° C., about 24 hours equilibration, ditrifluoroacetate) is given as more than 1.49 mg/mL. Besides, in data set [2] (setting [6]), the “Solubility (mg/mL) at 25° C. pH 4” value was more than 1.21 mg/mL. Moreover, the “Solubility (mg/mL) at 25° C. pH 6.5” value in data set [2] (setting [7]) came to 0.34 mg/mL.

For `Cc1c(-c2[nH]c3ccc(C4CC[N+](COC(=O)N(C)CCOP(=O)(O)O)(CC(N)=O)CC4)cc3c2C(C)C)cn2ncnc2c1C` (single isomer, unassigned) [Example 20, 1-(2-Amino-2-oxoethyl)-4-(2-(7,8-dimethyl-[1,2,4]triazolo[1,5-a]pyridin-6-yl)-3-isopropyl-1H-indol-5-yl)-1-(((methyl(2-(phosphonooxy)ethyl)carbamoyl)oxy)methyl) piperidin-1-ium trifluoroacetate], the half-life in data set [1] (setting [3]), in data set [1] (setting [4]) and in data set [1] (setting [5]) was more than 500 h each time. The solubility in data set [2] (setting [8]) is more than 1.16 mg/mL; in data set [2] (setting [9]), more than 1.87 mg/mL; in data set [2] (setting [10]), more than 2.08 mg/mL.

Consider `Cc1c(-c2[nH]c3ccc(C4CCN(CC(N)=O)CC4)cc3c2C(C)C)cn2nc[n+](COC(=O)N(C)CCOP(=O)(O)O)c2c1C` (single isomer, unassigned) [Example 21, 6-(5-(1-(2-amino-2-oxoethyl)piperidin-4-yl)-3-isopropyl-1H-indol-2-yl)-7,8-dimethyl-1-(((methyl(2-(phosphonooxy)ethyl)carbamoyl)oxy)methyl)-[1,2,4]triazolo[1,5-a]pyridin-1-ium trifluoroacetate], for which the half-life in data set [1] (setting [3]), in data set [1] (setting [4]) and in data set [1] (setting [5]) was more than 500 h throughout. Further, the solubility in data set [2] (setting [8]) is more than 1.75 mg/mL; in data set [2] (setting [9]), 0.25 mg/mL; in data set [2] (setting [10]), 0.55 mg/mL.

Consider `Cc1c(-c2[nH]c3ccc(C4CCN(CC(N)=O)CC4)cc3c2C(C)C)cn2ncnc2c1C` [Compound A, 2-(4-(2-(7,8-dimethyl-[1,2,4]triazolo[1,5-a]pyridin-6-yl)-3-isopropyl-1H-indol-5-yl)piperidin-1-yl)acetamide, reference compound], for which the solubility in data set [2] (setting [8]) was 1.56 mg/mL (≈ 3510 µM); in data set [2] (setting [9]), 0.05 mg/mL (≈ 112 µM); in data set [2] (setting [10]), less than 0.01 mg/mL. For the same molecule, in data set [2] (pH of 1 versus pH of 4 or pH of 6), the “pH dependence of aqueous solubility” value is on record as “higher solubility at pH of 1 than at pH of 4 or pH of 6”.

`Cc1c(-c2c(C(C)C)c3cc(C4CCN(CC(N)=O)CC4)ccc3n2C(=O)OC[C@@H]2CCCCN2)cn2ncnc2c1C` [Example 1, (S)-Piperidin-2-ylmethyl 5-(1-(2-amino-2-oxoethyl)piperidin-4-yl)-2-(7,8-dimethyl-[1,2,4]triazolo[1,5-a]pyridin-6-yl)-3-isopropyl-1H-indole-1-carboxylate]: the half-life in data set [1] (setting [3]) was more than 500 h; in data set [1] (setting [4]), more than 500 h; in data set [1] (setting [5]), 218 h. Besides, the solubility in data set [2] (setting [8]) was more than 1.74 mg/mL; in data set [2] (setting [9]) it was more than 1.28 mg/mL; in data set [2] (setting [10]), more than 1.34 mg/mL.

`Cc1c(-c2c(C(C)C)c3cc(C4CCN(CC(N)=O)CC4)ccc3n2C(=O)OC[C@@H]2CCCCN2C(=O)OCOP(=O)(O)O)cn2ncnc2c1C` [Example 2, (S)-(1-(((Phosphonooxy)methoxy)carbonyl)piperidin-2-yl)methyl 5-(1-(2-amino-2-oxoethyl)piperidin-4-yl)-2-(7,8-dimethyl-[1,2,4]triazolo[1,5-a]pyridin-6-yl)-3-isopropyl-1H-indole-1-carboxylate]: the half-life was 248 h in data set [1] (setting [3]), 283 h in data set [1] (setting [4]) and 267 h in data set [1] (setting [5]). Besides, the solubility in data set [2] (setting [8]) is more than 1.17 mg/mL; in data set [2] (setting [9]), 0.24 mg/mL (≈ 324 µM); in data set [2] (setting [10]), 0.43 mg/mL (≈ 581 µM).

With `CNCC(=O)OCc1cccnc1N(C)C(=O)OC[N+]1(CC(N)=O)CCC(c2ccc3[nH]c(-c4cn5ncnc5c(C)c4C)c(C(C)C)c3c2)CC1` (stereo not shown) [Example 12, 1-(2-Amino-2-oxoethyl)-4-(2-(7,8-dimethyl-[1,2,4]triazolo[1,5-a]pyridin-6-yl)-3-isopropyl-1H-indol-5-yl)-1-(((methyl(3-(((methylglycyl)oxy)methyl)pyridin-2-yl)carbamoyl)oxy)methyl)piperidin-1-ium ditrifluoroacetate], the half-life in data set [1] (setting [3]) is more than 500 h; in data set [1] (setting [4]) it was 99 h; in data set [1] (setting [5]), 1.6 h.

With `CNCC(=O)OCc1cccnc1N(C)C(=O)OC[n+]1cnn2cc(-c3[nH]c4ccc(C5CCN(CC(N)=O)CC5)cc4c3C(C)C)c(C)c(C)c21` [Example 13, 6-(5-(1-(2-Amino-2-oxoethyl)piperidin-4-yl)-3-isopropyl-1H-indol-2-yl)-7,8-dimethyl-1-(((methyl(3-(((methylglycyl)oxy)methyl)pyridin-2-yl)carbamoyl)oxy)methyl)-[1,2,4]triazolo[1,5-a]pyridin-1-ium tritrifluoroacetate], the results for the half-life in data set [1] (setting [3]), in data set [1] (setting [4]) and in data set [1] (setting [5]) were 459 h, 99 h and 2.5 h, respectively.

Turning to `Cc1c(-c2c(C(C)C)c3cc(C4CCN(CC(N)=O)CC4)ccc3n2C(=O)OCOP(=O)(O)O)cn2ncnc2c1C` [Example 16, (Phosphonooxy)methyl 5-(1-(2-amino-2-oxoethyl)piperidin-4-yl)-2-(7,8-dimethyl-[1,2,4]triazolo[1,5-a]pyridin-6-yl)-3-isopropyl-1H-indole-1-carboxylate], the half-life was 80 h in data set [1] (setting [3]), 7.5 h in data set [1] (setting [4]) and 0.1 h in data set [1] (setting [5]).

Consider `Cc1c(-c2c(C(C)C)c3cc(C4CCN(CC(N)=O)CC4)ccc3n2P(=O)(O)O)cn2ncnc2c1C` [Example 18, (5-(1-(2-Amino-2-oxoethyl)piperidin-4-yl)-2-(7,8-dimethyl-[1,2,4]triazolo[1,5-a]pyridin-6-yl)-3-isopropyl-1H-indol-1-yl)phosphonate], for which the figures for the half-life in data set [1] (setting [3]), in data set [1] (setting [4]) and in data set [1] (setting [5]) were 6.4 h, 2.9 h and 6.3 h, respectively.
